# In US9725465B2, “Biaryl acetamide compounds and methods of use thereof” (Ambit Biosciences Corporation, priority 2013, dated 2017):
# Key:
# [1] = biological target: FLT3-ITD (Homo sapiens (Human), UniProt P36888, INS600HVDFREYEYD); test: pFLT3 MSD assay, Ba/F3 FLT3-ITD; type: cell-based; conditions: Ba/F3 FLT3-ITD cells, 2 hours, read-out: BaF3-FLT3-ITD pFlt3 IC50
# [2] = biological target: FLT3 kinase (Homo sapiens (Human), UniProt P36888); test: Competition binding assay (Kd), FLT3; conditions: competition binding assay
# [3] = biological target: KIT kinase (Homo sapiens (Human), UniProt P10721); test: Competition binding assay (Kd), KIT; conditions: competition binding assay
# Outline: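 Kd derived from eleven-point threefold serial dilutions of compound competing with bead-bound ligand for kinase; bound kinase eluted and measured by quantitative PCR. Kinase supplied either as a T7 phage fusion or expressed in HEK-293 cells with a DNA tag; DMSO served as control.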
# Chain of FLT3-ITD (P36888 other isoform, or with tags, fused parts or gaps limits assumed, stated change not applied): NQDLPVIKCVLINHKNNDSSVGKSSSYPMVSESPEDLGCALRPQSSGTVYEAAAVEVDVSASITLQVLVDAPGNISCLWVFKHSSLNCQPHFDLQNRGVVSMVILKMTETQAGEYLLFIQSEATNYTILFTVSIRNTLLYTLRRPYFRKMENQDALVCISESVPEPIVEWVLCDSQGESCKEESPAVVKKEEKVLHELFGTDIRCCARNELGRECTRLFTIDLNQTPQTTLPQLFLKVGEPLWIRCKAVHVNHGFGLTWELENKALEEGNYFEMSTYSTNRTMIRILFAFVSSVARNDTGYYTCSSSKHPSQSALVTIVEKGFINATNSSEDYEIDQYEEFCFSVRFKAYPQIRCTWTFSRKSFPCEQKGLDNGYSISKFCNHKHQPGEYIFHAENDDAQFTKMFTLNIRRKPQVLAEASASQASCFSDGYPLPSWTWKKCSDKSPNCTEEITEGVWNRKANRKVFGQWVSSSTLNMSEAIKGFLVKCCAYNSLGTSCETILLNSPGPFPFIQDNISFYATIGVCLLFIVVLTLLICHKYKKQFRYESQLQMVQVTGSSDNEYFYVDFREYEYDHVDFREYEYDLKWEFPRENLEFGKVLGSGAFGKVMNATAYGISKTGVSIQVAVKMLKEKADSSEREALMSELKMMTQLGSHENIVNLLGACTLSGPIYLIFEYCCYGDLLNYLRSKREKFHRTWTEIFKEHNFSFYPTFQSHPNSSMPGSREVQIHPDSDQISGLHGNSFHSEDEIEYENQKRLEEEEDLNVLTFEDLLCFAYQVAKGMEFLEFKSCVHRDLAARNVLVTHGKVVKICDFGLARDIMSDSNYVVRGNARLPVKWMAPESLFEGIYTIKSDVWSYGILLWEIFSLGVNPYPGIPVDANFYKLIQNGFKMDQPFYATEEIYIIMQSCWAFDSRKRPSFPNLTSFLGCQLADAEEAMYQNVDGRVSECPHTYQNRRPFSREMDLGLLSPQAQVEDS
# Chain of FLT3 kinase (P36888 27-993): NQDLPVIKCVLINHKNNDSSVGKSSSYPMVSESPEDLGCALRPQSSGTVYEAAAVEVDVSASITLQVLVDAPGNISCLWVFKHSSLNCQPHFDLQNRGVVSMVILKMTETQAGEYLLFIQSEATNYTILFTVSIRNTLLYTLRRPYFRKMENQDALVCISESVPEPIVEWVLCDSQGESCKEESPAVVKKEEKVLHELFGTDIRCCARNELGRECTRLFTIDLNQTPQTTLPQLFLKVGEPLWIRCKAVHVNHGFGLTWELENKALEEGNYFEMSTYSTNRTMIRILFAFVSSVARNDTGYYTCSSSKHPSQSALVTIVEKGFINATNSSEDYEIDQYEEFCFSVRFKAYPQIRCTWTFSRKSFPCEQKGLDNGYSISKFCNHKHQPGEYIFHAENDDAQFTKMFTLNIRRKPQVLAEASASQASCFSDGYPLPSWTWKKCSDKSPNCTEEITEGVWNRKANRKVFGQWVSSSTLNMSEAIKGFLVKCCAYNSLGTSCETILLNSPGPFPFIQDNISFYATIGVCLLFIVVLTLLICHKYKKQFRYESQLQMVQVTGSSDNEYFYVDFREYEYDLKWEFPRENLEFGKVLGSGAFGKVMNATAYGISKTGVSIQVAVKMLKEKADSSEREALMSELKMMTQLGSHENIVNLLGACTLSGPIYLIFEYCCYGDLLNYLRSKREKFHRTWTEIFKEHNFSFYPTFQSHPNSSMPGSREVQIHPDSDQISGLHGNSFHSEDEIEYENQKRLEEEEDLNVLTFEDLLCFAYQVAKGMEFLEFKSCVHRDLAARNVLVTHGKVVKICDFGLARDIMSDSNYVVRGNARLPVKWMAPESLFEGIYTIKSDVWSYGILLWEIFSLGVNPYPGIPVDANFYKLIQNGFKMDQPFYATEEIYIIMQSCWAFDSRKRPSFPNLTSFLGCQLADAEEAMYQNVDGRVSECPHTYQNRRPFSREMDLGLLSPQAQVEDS
# Chain of KIT kinase (P10721 26-976): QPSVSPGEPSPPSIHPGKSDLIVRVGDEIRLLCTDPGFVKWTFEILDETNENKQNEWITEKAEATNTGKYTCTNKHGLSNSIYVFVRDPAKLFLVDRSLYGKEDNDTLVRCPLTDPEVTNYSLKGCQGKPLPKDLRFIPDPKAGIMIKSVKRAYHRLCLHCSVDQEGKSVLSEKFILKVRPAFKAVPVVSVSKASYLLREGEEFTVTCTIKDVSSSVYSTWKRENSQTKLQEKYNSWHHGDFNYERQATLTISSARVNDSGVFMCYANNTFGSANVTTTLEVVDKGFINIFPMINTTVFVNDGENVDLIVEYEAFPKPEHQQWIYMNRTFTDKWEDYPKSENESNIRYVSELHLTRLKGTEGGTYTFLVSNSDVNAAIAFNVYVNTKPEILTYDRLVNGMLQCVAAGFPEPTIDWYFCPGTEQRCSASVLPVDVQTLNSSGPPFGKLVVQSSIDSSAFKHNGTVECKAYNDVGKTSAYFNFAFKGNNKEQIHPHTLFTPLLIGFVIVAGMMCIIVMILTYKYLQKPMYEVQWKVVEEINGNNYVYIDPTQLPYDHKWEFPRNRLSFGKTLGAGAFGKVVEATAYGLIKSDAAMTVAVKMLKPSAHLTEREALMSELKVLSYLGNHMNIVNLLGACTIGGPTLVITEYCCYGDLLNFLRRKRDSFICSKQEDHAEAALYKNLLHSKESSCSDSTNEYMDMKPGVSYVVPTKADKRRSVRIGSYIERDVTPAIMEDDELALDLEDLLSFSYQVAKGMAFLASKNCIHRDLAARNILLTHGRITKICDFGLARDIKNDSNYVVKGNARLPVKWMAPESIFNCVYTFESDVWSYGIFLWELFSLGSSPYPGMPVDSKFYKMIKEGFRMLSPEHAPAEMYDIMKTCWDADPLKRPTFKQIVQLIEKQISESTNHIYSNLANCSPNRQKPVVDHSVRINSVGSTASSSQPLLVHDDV
IC50 [1] [nM],Kd [2] [nM],Kd [3] [nM],SMILES
< 10,< 5,< 5,"O=C(Cc1ccc(-c2cnc3cc(OCCO)c(OCCO)cc3n2)cc1F)Nc1cc(C2(C(F)(F)F)CC2)on1 [Example 75, 2-(4-(6,7-bis(2-hydroxyethoxy)quinoxalin-2-yl)-2-fluorophenyl)-N-(5-(1-(trifluoromethyl)cyclopropyl)isoxazol-3-yl)acetamide]"
< 10,< 5,< 5,"COCCOc1cc2nc(-c3ccc(CC(=O)Nc4cc(C(C)(C)C)nn4C)c(F)c3)cnc2cc1OC [Example 161, N-(5-tert-butyl-2-methyl-pyrazol-3-yl)-2-[2-fluoro-4-[6-methoxy-7-(2-methoxyethoxy)quinoxalin-2-yl]phenyl]acetamide]"
< 10,< 5,< 5,"COCCOc1cc2ncc(-c3ccc(CC(=O)Nc4cc(C(C)(C)C(F)(F)F)on4)c(F)c3)nc2cc1OC [Example 159, 2-[2-fluoro-4-[7-methoxy-6-(2-methoxy-ethoxy)quinoxalin-2-yl]phenyl]-N-[5-(2,2,2-trifluoro-1,1-dimethyl-ethyl)isoxazol-3-yl]acetamide]"
< 10,< 5,< 5,"CN(C)C1CCN(C(=O)c2cc3cc(-c4ccc(CC(=O)Nc5cc(C6(C(F)(F)F)CC6)on5)c(F)c4)cnc3[nH]2)C1 (stereo not drawn) [Example 110, 2-[4-[2-[3-(dimethylamino)pyrrolidine-1-carbonyl]-1H-pyrrolo[2,3-b]pyridin-5-yl]-2-fluoro-phenyl]-N-[5-[1-(trifluoro-methyl)cyclopropyl]isoxazol-3-yl]acetamide]"
< 10,< 5,< 5,"COc1cc2nc(-c3ccc(CC(=O)Nc4cc(C5(C(F)(F)F)CC5)on4)c(F)c3)cnc2cc1OCCNC(C)=O [Example 168, 2-[4-[6-(2-acetamidoethoxy)-7-methoxy-quinoxalin-2-yl]-2-fluoro-phenyl]-N-[5-[1-(trifluoromethyl)cyclo-propyl]isoxazol-3-yl]acetamide]"
< 10,< 5,< 5,"COc1cc2cc(-c3ccc(CC(=O)Nc4cc(C5(C(F)(F)F)CC5)on4)c(F)c3)cnc2cc1OCCO [Example 88, 2-(2-fluoro-4-(7-(2-hydroxyethoxy)-6-methoxyquinolin-3-yl)phenyl)-N-(5-(1-(trifluoromethyl)cyclopropyl)isoxazol-3-yl)acetamide]"
< 10,< 5,< 5,"CCN1CC(Oc2cc3ncc(-c4ccc(CC(=O)Nc5cc(C6(C(F)(F)F)CC6)on5)c(F)c4)nc3cc2OC)C1 [Example 142, 2-[4-[6-(1-ethylazetidin-3-yl)oxy-7-methoxy-quinoxalin-2-yl]-2-fluoro-phenyl]-N-[5-[1-(trifluoro-methyl)cyclopropyl]isoxazol-3-yl]acetamide]"
> 50,20 to 50,> 50,"COc1cc2nc(C(=O)O)c(-c3ccc(CC(=O)Nc4cc(C5(C(F)(F)F)CC5)on4)c(F)c3)nc2cc1OC [Example 133, 3-[3-fluoro-4-[2-oxo-2-[[5-[1-(trifluoro-methyl)cyclopropyl]isoxazol-3-yl]amino]ethyl]phenyl]-6,7-dimethoxy-quinoxaline-2-carboxylic acid]"
< 10,< 5,< 5,"COc1cc2cc(-c3ccc(CC(=O)Nc4cc(C5(C(F)(F)F)CC5)on4)c(F)c3)cnc2cc1OCCOC(C)=O [Example 127, 2-[[3-[3-fluoro-4-[2-oxo-2-[[5-[1-(trifluoro-methyl)cyclopropyl]isoxazol-3-yl]amino]ethyl]phenyl]-6-methoxy-7-quinolyl]oxy]ethyl acetate]"
< 10,< 5,< 5,"CN1CC(NC(=O)c2cc3cc(-c4ccc(CC(=O)Nc5cc(C6(C(F)(F)F)CC6)on5)c(F)c4)cnc3[nH]2)C1 [Example 113, 5-[3-fluoro-4-[2-oxo-2-[[5-[1-(trifluoromethyl)cyclo-propyl]isoxazol-3-yl]amino]ethyl]phenyl]-N-(1-methylazetidin-3-yl)-1H-pyrrolo[2,3-b]pyridine-2-carboxamide]"
< 10,< 5,< 5,"CCOc1cc2ncc(-c3ccc(CC(=O)Nc4cc(C5(C(F)(F)F)CC5)on4)c(F)c3)nc2cc1OCC [Example 118, 2-[4-(6,7-diethoxyquinoxalin-2-yl)-2-fluoro-phenyl]-N-[5-[1-(trifluoromethyl)cyclo-propyl]isoxazol-3-yl]acetamide]"
< 10,< 5,5 to 20,"O=C(Cc1ccc(-c2cnc3cc4c(cc3n2)OCCO4)cc1F)Nc1cc(C2(C(F)(F)F)CC2)on1 [Example 76, 2-(4-(2,3-dihydro-[1,4]dioxino[2,3-g]quinoxalin-7-yl)-2-fluorophenyl)-N-(5-(1-(trifluoromethyl)cyclopropyl)isoxazol-3-yl)acetamide]"
< 10,< 5,< 5,"COc1cc2nc(O)c(-c3ccc(CC(=O)Nc4cc(C5(C(F)(F)F)CC5)on4)c(F)c3)nc2cc1OC [Example 152, 2-[4-(6,7-dimethoxy-3-hydroxy-quinoxalin-2-yl)-2-fluoro-phenyl]-N-[5-[1-(trifluoromethyl)cyclo-propyl]isoxazol-3-yl]acetamide]"
< 10,< 5,< 5,"Cn1cc(-c2n[nH]c3ncc(-c4ccc(CC(=O)Nc5cc(C(C)(C)C)on5)cc4)cc23)cn1 [Example 109, N-(5-tert-butylisoxazol-3-yl)-2-[4-[3-(1-methylpyrazol-4-yl)-1H-pyrazolo[3,4-b]pyridin-5-yl]phenyl]acetamide]"
< 10,< 5,< 5,"CN(C)CCNC(=O)c1cc2cc(-c3ccc(CC(=O)Nc4cc(C5(C(F)(F)F)CC5)on4)c(F)c3)cnc2[nH]1 [Example 108, N-[2-(dimethylamino)ethyl]-5-[3-fluoro-4-[2-oxo-2-[[5-[1-(trifluoromethyl)cyclo-propyl]isoxazol-3-yl]amino]ethyl]phenyl]-1H-pyrrolo[2,3-b]pyridine-2-carboxamide]"
< 10,< 5,< 5,"COc1cc2nc(N)c(-c3ccc(CC(=O)Nc4cc(C5(C(F)(F)F)CC5)on4)c(F)c3)nc2cc1OC [Example 123, 2-[4-(3-amino-6,7-dimethoxy-quinoxalin-2-yl)-2-fluoro-phenyl]-N-[5-[1-(trifluoro-methyl)cyclopropyl]isoxazol-3-yl]acetamide]"
< 10,< 5,5 to 20,"CN(C)CCNC(=O)c1n[nH]c2ncc(-c3ccc(CC(=O)Nc4cc(C(C)(C)C)on4)cc3)cc12 [Example 100, 5-[4-[2-[(5-tert-butylisoxazol-3-yl)amino]-2-oxo-ethyl]phenyl]-N-[2-(dimethylamino)ethyl]-1H-pyrazolo[3,4-b]pyridine-3-carboxamide]"
< 10,< 5,< 5,"COc1cc2ncc(-c3ccc(CC(=O)Nc4cc(C(C)(C)C)nn4C)c(F)c3)nc2cc1OC [Example 139, N-(5-tert-butyl-2-methyl-pyrazol-3-yl)-2-[4-(6,7-dimethoxyquinoxalin-2-yl)-2-fluoro-phenyl]acetamide]"
< 10,< 5,< 5,"CN1CCC(NC(=O)c2cc3cc(-c4ccc(CC(=O)Nc5cc(C(C)(C)C)on5)cc4)cnc3[nH]2)CC1 [Example 69, 5-(4-(2-((5-(tert-butyl)isoxazol-3-yl)amino)-2-oxoethyl)phenyl)-N-(1-methylpiperidin-4-yl)-1H-pyrrolo[2,3-b]pyridine-2-carboxamide]"
< 10,< 5,< 5,"CN(C)CCCN(C)C(=O)c1cc2cc(-c3ccc(CC(=O)Nc4cc(C(C)(C)C)on4)cc3)cnc2[nH]1 [Example 67, 5-(4-(2-((5-(tert-butyl)isoxazol-3-yl)amino)-2-oxoethyl)phenyl)-N-(3-(dimethylamino)propyl)-N-methyl-1H-pyrrolo[2,3-b]pyridine-2-carboxamide]"
< 10,< 5,< 5,"COCCOc1cc2ncc(-c3ccc(CC(=O)Nc4cc(C(C)(C)C)on4)cc3)nc2cc1OCCOC [Example 120, 2-[4-[6,7-bis(2-methoxyethoxy)quinoxalin-2-yl]phenyl]-N-(5-tert-butylisoxazol-3-yl)acetamide]"
< 10,< 5,< 5,"COc1cc2nc(-c3ccc(CC(=O)Nc4cc(C5(C(F)(F)F)CC5)on4)c(F)c3)cnc2cc1OC1COC1 [Example 144, 2-[2-fluoro-4-[7-methoxy-6-(oxetan-3-yloxy)quinoxalin-2-yl]phenyl]-N-[5-[1-(trifluoro-methyl)cyclopropyl]isoxazol-3-yl]acetamide]"
< 10,< 5,< 5,"COc1cc2nc(-c3ccc(CC(=O)Nc4cc(C(C)(C)C(F)(F)F)on4)c(F)c3)cnc2cc1OC1CN(C)C1 [Example 150, 2-[2-fluoro-4-[7-methoxy-6-(1-methylazetidin-3-yl)oxy-quinoxalin-2-yl]phenyl]-N-[5-(2,2,2-trifluoro-1,1-dimethyl-ethyl)isoxazol-3-yl]acetamide]"
< 10,< 5,< 5,"COc1cc2ncc(-c3ccc(CC(=O)Nc4cc(C(C)(C)C)n[nH]4)c(F)c3)nc2cc1OC [Example 153, N-(3-tert-butyl-1H-pyrazol-5-yl)-2-[4-(6,7-dimethoxyquinoxalin-2-yl)-2-fluoro-phenyl]acetamide]"
< 10,< 5,5 to 20,"COc1cc2ncc(-c3ccc(CC(=O)Nc4cc(C(C)(C)C(F)(F)F)on4)c(F)c3)nc2cc1OC [Example 46, 2-(4-(6,7-dimethoxyquinoxalin-2-yl)-2-fluorophenyl)-N-(5-(1,1,1-trifluoro-2-methylpropan-2-yl)isoxazol-3-yl)acetamide]"
